Results taken from the supplement of paper PMC13380429.

Tests used:
[1] = system: U2OS; assay: cell viability relative to DMSO; higher = less toxic; settings: 72 h
[2] = system: Caco-2; assay: as above; settings: 72 h
[3] = system: Calu-3; assay: as above; settings: 72 h
[4] = system: Vero E6; assay: as above; settings: 72 h
[5] = system: HepG2; assay: as above; settings: 72 h
[6] = system: U2OS; assay: drug sensitivity score (DSS) for viability; higher = more toxic; extreme values may be limits of the assay; settings: 72 h
[7] = system: Caco-2; assay: as above; settings: 72 h
[8] = system: Calu-3; assay: as above; settings: 72 h
[9] = system: Vero E6; assay: as above; settings: 72 h
[10] = system: HepG2; assay: as above; settings: 72 h
[11] = system: A549-ACE2 infected with SARS-CoV-2; assay: cell count relative to DMSO; higher = less toxic; settings: 24 h
[12] = system: A549-ACE2 infected with SARS-CoV-2; assay: SARS-CoV-2 infection rate relative to DMSO; higher = more infection; settings: 24 h
[13] = system: A549-ACE2; assay: drug-induced phospholipidosis relative to tamoxifen; higher = more phospholipidosis
[14] = system: Caco-2; assay: relative viability EC50 (midpoint between 100% and the lowest measured viability); higher = less toxic; settings: 72 h
[15] = system: Calu-3; assay: as above; settings: 72 h
[16] = system: Vero E6; assay: as above; settings: 72 h
[17] = system: A549-ACE2 infected with SARS-CoV-2; assay: morphology score (similarity to uninfected cells); higher = more like uninfected cells; settings: 24 h
[18] = system: A549-ACE2; assay: phospholipidosis EC50; higher = less potent phospholipidosis inducer
[19] = system: U2OS; assay: relative viability EC50 (midpoint between 100% and the lowest measured viability); higher = less toxic; settings: 72 h
[20] = system: HepG2; assay: as above; settings: 72 h

COc1cc2ncnc(Nc3cccc(Br)c3)c2cc1OC
Settings | SARS-CoV-2 infection rate, [12] [%] | cell count, [11] [%] | cell viability, [1] [%] | cell viability, [2] [%] | cell viability, [3] [%] | cell viability, [4] [%] | cell viability, [5] [%] | morphology score, [17]
1 nM | – | – | 93.7 | 88.5 | 102 | 101 | 103 | –
10 nM | – | – | 98.4 | 109 | 84.4 | 84.6 | 86.4 | –
100 nM | – | – | 97.6 | 95.1 | 96.5 | 102 | 92.6 | –
0.3 µM | 107 | 87 | – | – | – | – | – | -0.21
1000 nM | – | – | 93.2 | 69.6 | 40.4 | 79.7 | 92.1 | –
3 µM | 86 | 105 | – | – | – | – | – | 0.38
10000 nM | – | – | 72.9 | 47.2 | 23.6 | 49.6 | 71.6 | –
10 µM | 33 | 92 | – | – | – | – | – | 0.64
30 µM | 64 | 29 | – | – | – | – | – | -0.06

Settings | drug sensitivity score | relative viability EC50
[6] | 2.1 | –
[7] | 6.4 | –
[8] | 11.7 | –
[9] | 5.4 | –
[10] | 2.1 | –
[14] | – | 774 nM
[15] | – | 497 nM
[16] | – | 1.17 µM

drug-induced phospholipidosis [%], [13]
Settings | 0.3 µM | 0.833333 µM | 3.33333 µM | 6.66667 µM | 10 µM | 30 µM
24 h | 1.6 | -1.36 | 0.82 | 3.17 | 1.18 | 9.67
48 h | -2.83 | -1.17 | -1.23 | -4.71 | -0.44 | –
72 h | 2.41 | -2.62 | -2.62 | -1.43 | 0.652 | –

O=C(NCCCN1CCC2(CC1)OCc1ccccc12)[C@H]1CCCN1Cc1ccccc1 [BAN-ORL-24]
Settings | SARS-CoV-2 infection rate [%] | cell count [%] | cell viability [%] | morphology score | phospholipidosis EC50 [µM]
[1], 1 nM | – | – | 105 | – | –
[1], 10 nM | – | – | 105 | – | –
[1], 100 nM | – | – | 104 | – | –
[1], 1000 nM | – | – | 104 | – | –
[1], 10000 nM | – | – | 99.2 | – | –
[2], 1 nM | – | – | 98.3 | – | –
[2], 10 nM | – | – | 103 | – | –
[2], 100 nM | – | – | 101 | – | –
[2], 1000 nM | – | – | 105 | – | –
[2], 10000 nM | – | – | 92.1 | – | –
[3], 1 nM | – | – | 104 | – | –
[3], 10 nM | – | – | 108 | – | –
[3], 100 nM | – | – | 114 | – | –
[3], 1000 nM | – | – | 105 | – | –
[3], 10000 nM | – | – | 87.1 | – | –
[4], 1 nM | – | – | 94.8 | – | –
[4], 10 nM | – | – | 95.8 | – | –
[4], 100 nM | – | – | 91.6 | – | –
[4], 1000 nM | – | – | 93.2 | – | –
[4], 10000 nM | – | – | 99.5 | – | –
[5], 1 nM | – | – | 97.5 | – | –
[5], 10 nM | – | – | 109 | – | –
[5], 100 nM | – | – | 103 | – | –
[5], 1000 nM | – | – | 98.7 | – | –
[5], 10000 nM | – | – | 89.2 | – | –
[11], 0.3 µM | – | 98 | – | – | –
[11], 3 µM | – | 117 | – | – | –
[11], 10 µM | – | 117 | – | – | –
[11], 30 µM | – | 123 | – | – | –
[12], 0.3 µM | 98 | – | – | – | –
[12], 3 µM | 59 | – | – | – | –
[12], 10 µM | 33 | – | – | – | –
[12], 30 µM | 18 | – | – | – | –
[17], 0.3 µM | – | – | – | -0.05 | –
[17], 3 µM | – | – | – | 0.69 | –
[17], 10 µM | – | – | – | 0.81 | –
[17], 30 µM | – | – | – | 0.69 | –
[18], 24 h | – | – | – | – | 9.61
[18], 48 h | – | – | – | – | 9.12
[18], 72 h | – | – | – | – | 15

Settings | drug sensitivity score | relative viability EC50
[6] | 0 | –
[7] | 0 | –
[8] | 0 | –
[9] | 0 | –
[10] | 0 | –
[14] | – | > 10000 nM
[15] | – | > 10000 nM
[16] | – | > 10 µM
[19] | – | > 10 µM
[20] | – | > 10 µM

drug-induced phospholipidosis [%], [13]
Settings | 0.3 µM | 0.833333 µM | 3.33333 µM | 6.66667 µM | 10 µM | 30 µM
24 h | 0.49 | 5.2 | 25.6 | 45.9 | 72.6 | 109
48 h | 2.06 | 7.81 | 23.6 | 36.2 | 59.3 | 110
72 h | 5.31 | 9.96 | 24.4 | 35 | 56.6 | 125

CC1=C(C(=O)OC2CCCCC2)C(c2ccc([N+](=O)[O-])cc2)C2=C(CC(C)(C)CC2=O)N1 (configuration not stated) [FLI-06]
Settings | SARS-CoV-2 infection rate, [12] [%] | cell count, [11] [%] | cell viability, [1] [%] | cell viability, [2] [%] | cell viability, [3] [%] | cell viability, [4] [%] | cell viability, [5] [%] | morphology score, [17]
1 nM | – | – | 101 | 102 | 104 | 94.2 | 98.5 | –
10 nM | – | – | 100 | 101 | 106 | 92.2 | 102 | –
100 nM | – | – | 98.7 | 100 | 92.3 | 96.6 | 101 | –
0.1 µM | 111 | 99 | – | – | – | – | – | -0.06
0.3 µM | 100 | 104 | – | – | – | – | – | -0.11
1000 nM | – | – | 100 | 98 | 106 | 103 | 108 | –
1 µM | 101 | 99 | – | – | – | – | – | 0.02
3 µM | 51 | 101 | – | – | – | – | – | 0.52
10000 nM | – | – | 9.6 | 19.1 | 21.8 | 14.2 | 38.8 | –

Settings | drug sensitivity score | relative viability EC50
[6] | 5.1 | –
[7] | 4.7 | –
[8] | 3.9 | –
[9] | 4.5 | –
[10] | 2.8 | –
[14] | – | 2990 nM
[15] | – | 3530 nM
[16] | – | 3.36 µM
[19] | – | 3.16 µM
[20] | – | 3.72 µM

drug-induced phospholipidosis [%], [13]
Settings | 0.3 µM | 0.833333 µM | 3.33333 µM | 6.66667 µM | 10 µM | 30 µM
24 h | -0.85 | 2.59 | 9.31 | 10.3 | 4.47 | 3.32
48 h | 3.76 | 2.95 | -2.25 | -3.67 | – | –
72 h | 4.47 | 2.39 | -2.58 | – | – | –

CN1CCC(CNc2ccc3ncc(-c4cccc(OC(F)(F)F)c4)n3n2)CC1 [SGI-1776]
Settings | SARS-CoV-2 infection rate [%] | cell count [%] | cell viability [%] | morphology score | phospholipidosis EC50 [µM]
[1], 1 nM | – | – | 102 | – | –
[1], 10 nM | – | – | 95.4 | – | –
[1], 100 nM | – | – | 100 | – | –
[1], 1000 nM | – | – | 92.1 | – | –
[1], 10000 nM | – | – | 52 | – | –
[2], 1 nM | – | – | 102 | – | –
[2], 10 nM | – | – | 98.7 | – | –
[2], 100 nM | – | – | 101 | – | –
[2], 1000 nM | – | – | 88.2 | – | –
[2], 10000 nM | – | – | 58.6 | – | –
[3], 1 nM | – | – | 95.2 | – | –
[3], 10 nM | – | – | 88.7 | – | –
[3], 100 nM | – | – | 97.4 | – | –
[3], 1000 nM | – | – | 92.8 | – | –
[3], 10000 nM | – | – | 46.2 | – | –
[4], 1 nM | – | – | 104 | – | –
[4], 10 nM | – | – | 104 | – | –
[4], 100 nM | – | – | 99.5 | – | –
[4], 1000 nM | – | – | 97 | – | –
[4], 10000 nM | – | – | 55 | – | –
[5], 1 nM | – | – | 101 | – | –
[5], 10 nM | – | – | 95.1 | – | –
[5], 100 nM | – | – | 98.7 | – | –
[5], 1000 nM | – | – | 99.9 | – | –
[5], 10000 nM | – | – | 37.7 | – | –
[11], 0.1 µM | – | 105 | – | – | –
[11], 0.3 µM | – | 95 | – | – | –
[11], 1 µM | – | 106 | – | – | –
[11], 3 µM | – | 113 | – | – | –
[12], 0.1 µM | 94 | – | – | – | –
[12], 0.3 µM | 106 | – | – | – | –
[12], 1 µM | 84 | – | – | – | –
[12], 3 µM | 48 | – | – | – | –
[17], 0.1 µM | – | – | – | 0.31 | –
[17], 0.3 µM | – | – | – | -0.09 | –
[17], 1 µM | – | – | – | 0.43 | –
[17], 3 µM | – | – | – | 0.76 | –
[18], 24 h | – | – | – | – | 5.98
[18], 48 h | – | – | – | – | 11.8
[18], 72 h | – | – | – | – | 7.83

Settings | drug sensitivity score | relative viability EC50
[6] | 3.8 | –
[7] | 3.9 | –
[8] | 4.1 | –
[9] | 2.8 | –
[10] | 3.4 | –
[15] | – | 2090 nM
[20] | – | 3.15 µM

drug-induced phospholipidosis [%], [13]
Settings | 0.3 µM | 0.833333 µM | 3.33333 µM | 6.66667 µM | 10 µM | 30 µM
24 h | 8.28 | 2.67 | 25.6 | 59.2 | 81 | 100
48 h | 2.75 | 0.46 | 18.4 | 53.2 | 85.9 | –
72 h | 3.7 | -1.53 | 13.6 | 50.1 | 79.6 | –
